Tested on: Plasmopara viticola
Experiment: Activity against downy mildew of grapes caused by Plasmopara viticola (protective, potted vines)
Type: in vivo
Settings: individual active compound
Description: The active compounds, separately or together, were formulated as 10% emulsion in a mixture of 63% by weight of cyclohexanone and 27% by weight of emulsifier, and diluted with water to the desired concentration.
Evaluation was carried out by determining the infected leaf areas in percent. These percentages were converted into efficacies. The efficacy (w) was calculated as follows using Abbot's formula: w=(1−α)·100/β • α corresponds to the fungal infection of the treated plants in % and • β corresponds to the fungal infection of the untreated (control) plants in %
An efficacy of 0 means that the infection level of the treated plants corresponds to that of the untreated control plants; an efficacy of 100 means that the treated plants were not infected.
The expected efficacies of the mixtures of the active compounds were determined using Colby's formula [R. S. Colby, Weeds 15, 20-22 (1967)] and compared with the observed efficacies. Colby Formula: E=x+y−x·y/100 • E expected efficacy, expressed in % of the untreated control, when using the mixture of the active compounds A and B at the concentrations a and b • x efficacy, expressed in % of the untreated control, when using the active compound A at a concentration a • y efficacy, expressed in % of the untreated control, when using the active compound B at a concentration b
Leaves of potted vines of the cultivar “Müller-Thurgau” were sprayed to run off point with an aqueous preparation of active compound which had been prepared from a stock solution comprising 10% of active compound, 85% of cyclohexanone and 5% of emulsifier. The next day, the undersides of the leaves were inoculated with an aqueous zoospore suspension of Plasmopara viticola. The vines were then initially placed at 24° C. in a chamber saturated with water vapor for 48 hours and then for 5 days in a greenhouse at 20-30° C. After this period of time, the plants were once more placed into a moist chamber for 16 hours to promote sporangiophore eruption. The extent of the development of the disease on the undersides of the leaves was then determined visually.

## Cc1ccc(-c2c(Cl)nc(C#N)n2S(=O)(=O)N(C)C)cc1 [IIa, cyazofamid]
0.25 ppm in the spray liquor, vines Müller-Thurgau
  Efficacy in % of the untreated control: 14%
1 ppm in the spray liquor
  Efficacy in % of the untreated control: 57%
4 ppm in the spray liquor
  Efficacy in % of the untreated control: 71%

Source: patent US7368414B2, “Fungicidal mixtures” (BASF Aktiengesellschaft, priority 2000, dated 2008)
